# Reference: patent publication US10336739B2, “4-hydroxy-3-(heteroaryl)pyridine-2-one APJ agonists” (BRISTOL-MYERS SQUIBB COMPANY, priority 2015, dated 2019)
# Target: human APJ receptor (Homo sapiens (Human), UniProt P35414)
# Assay: Intracellular cAMP accumulation assay (APJ hcAMP, HTRF)
# Type: cell-based
# Conditions: HEK293 cells stably expressing human APJ receptor; inhibition of forskolin-mediated cAMP production; read-out: hAPJ cAMP EC50 Potency range
# Outline: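 HEK293 cells stably expressing human APJ, 5,000 per well, exposed to compound with […] IBMX and 2 μM forskolin for 30 minutes at room temperature. cAMP measured by HTRF after lysis and 60 min detection incubation. EC50 from sigmoidal variable-slope fits of inhibition of forskolin-induced cAMP, quantified against a cAMP standard curve.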
# Chain of human APJ receptor (P35414 whole entry): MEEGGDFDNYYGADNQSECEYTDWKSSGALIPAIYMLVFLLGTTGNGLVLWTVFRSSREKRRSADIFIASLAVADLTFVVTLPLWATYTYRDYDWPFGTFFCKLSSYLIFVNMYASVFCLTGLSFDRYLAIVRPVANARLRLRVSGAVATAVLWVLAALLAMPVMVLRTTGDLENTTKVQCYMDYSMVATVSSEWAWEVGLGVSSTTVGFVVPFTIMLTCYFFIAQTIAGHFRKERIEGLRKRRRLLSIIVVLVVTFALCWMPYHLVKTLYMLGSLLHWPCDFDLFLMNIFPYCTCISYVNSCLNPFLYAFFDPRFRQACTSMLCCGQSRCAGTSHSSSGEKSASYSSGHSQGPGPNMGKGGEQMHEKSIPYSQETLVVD
row,Structure (SMILES),EC50 [nM]
1,"CCCCc1nc(O)c(-c2nnc(CCc3nc(-c4ccccn4)no3)o2)c(O)c1-c1c(OC)cccc1OC [Example 83, 6-butyl-5-(2,6-dimethoxyphenyl)-3-(5-{2-[3-(pyridin-2-yl)-1,2,4-oxadiazol-5-yl]ethyl}-1,3,4-oxadiazol-2-yl)pyridine-2,4-diol]",0.01 to 10
2,"CCCCc1nc(O)c(-c2nnc(Cc3nc(-c4ccccc4)sc3C)o2)c(O)c1-c1c(OC)cccc1OC [Example 84, 6-butyl-5-(2,6-dimethoxyphenyl)-3-{5-[(5-methyl-2-phenyl-1,3-thiazol-4-yl)methyl]-1,3,4-oxadiazol-2-yl}pyridine-2,4-diol]",0.01 to 10
3,"CCCCc1nc(O)c(-c2nnc(CCc3ccc(Cl)c(Cl)c3)o2)c(O)c1-c1c(OC)cccc1OC [Example 85, 6-butyl-3-{5-[2-(3,4-dichlorophenyl)ethyl]-1,3,4-oxadiazol-2-yl}-5-(2,6-dimethoxyphenyl) pyridine-2,4-diol]",10 to 100
4,"CCCCc1nc(O)c(-c2nnc(Cc3noc4ccccc34)o2)c(O)c1-c1c(Cl)cccc1Cl [Example 86, 3-[5-(1,2-benzoxazol-3-ylmethyl)-1,3,4-oxadiazol-2-yl]-6-butyl-5-(2,6-dichlorophenyl) pyridine-2,4-diol]",0.01 to 10
5,"CCCCc1nc(O)c(-c2nnc(Cc3ccc(Cl)cc3)o2)c(O)c1-c1c(Cl)cccc1Cl [Example 87, 6-butyl-3-{5-[(4-chlorophenyl)methyl]-1,3,4-oxadiazol-2-yl}-5-(2,6-dichlorophenyl) pyridine-2,4-diol]",10 to 100
6,"CCCCc1nc(O)c(-c2nnc(C(c3ccc(F)cc3)N(C)C)o2)c(O)c1-c1c(OC)cccc1OC (centres unmarked) [Example 88, 6-butyl-5-(2,6-dimethoxyphenyl)-3-{5-[(dimethylamino) (4-fluorophenyl)methyl]-1,3,4-oxadiazol-2-yl}pyridine-2,4-diol]",0.01 to 10
7,"CCOCc1nc(O)c(-c2nnc(Cc3noc4ccccc34)o2)c(O)c1-c1c(OC)cccc1OC [Example 89, 3-[5-(1,2-benzoxazol-3-ylmethyl)-1,3,4-oxadiazol-2-yl]-5-(2,6-dimethoxyphenyl)-6-(ethoxymethyl) pyridine-2,4-diol]",0.01 to 10
8,"CCOCc1nc(O)c(-c2nnc(Cc3ccc(Cl)cc3)o2)c(O)c1-c1c(OC)cccc1OC [Example 90, 3-{5-[(4-chlorophenyl)methyl]-1,3,4-oxadiazol-2-yl}-5-(2,6-dimethoxyphenyl)-6-(ethoxymethyl) pyridine-2,4-diol]",0.01 to 10
9,"CCCCc1nc(O)c(-c2nnc(Cc3nc(-c4ccccc4)oc3C)o2)c(O)c1-c1c(OC)cccc1OC [Example 91, 6-butyl-5-(2,6-dimethoxyphenyl)-3-{5-[(5-methyl-2-phenyl-1,3-oxazol-4-yl)methyl]-1,3,4-oxadiazol-2-yl}pyridine-2,4-diol]",0.01 to 10
10,"COc1cccc(OC)c1-c1c(C2CC2)nc(O)c(-c2nnc(Cc3noc4ccccc34)o2)c1O [Example 92, 3-[5-(1,2-benzoxazol-3-ylmethyl)-1,3,4-oxadiazol-2-yl]-6-cyclopropyl-5-(2,6-dimethoxyphenyl) pyridine-2,4-diol]",10 to 100
11,"COc1cccc(OC)c1-c1c(C2CC2)[nH]c(=O)c(-c2nnc(Cc3ccc(Cl)cc3)o2)c1O [Example 93, 3-{5-[(4-chlorophenyl)methyl]-1,3,4-oxadiazol-2-yl}-6-cyclopropyl-5-(2,6-dimethoxyphenyl) pyridine-2,4-diol]",10 to 100
12,"COc1cccc(OC)c1-c1c(C2CC2)nc(O)c(-c2nnc(Cc3csc(C)n3)o2)c1O [Example 94, 6-cyclopropyl-5-(2,6-dimethoxyphenyl) 3-{5-[(2-methyl-1,3-thiazol-4-yl)methyl]-1,3,4-oxadiazol-2-yl}pyridine-2,4-diol]",10 to 100
13,"COc1cccc(OC)c1-c1c(C2CC2)nc(O)c(-c2nnc(Cc3nc(-c4ccccn4)no3)o2)c1O [Example 95, 6-cyclopropyl-5-(2,6-dimethoxyphenyl)-3-(5-{[3-(pyridin-2-yl)-1,2,4-oxadiazol-5-yl]methyl}-1,3,4-oxadiazol-2-yl)pyridine-2,4-diol]",0.01 to 10
14,"CCCCc1nc(O)c(-c2nnc(CC(=O)OCC)o2)c(O)c1-c1c(OC)cccc1OC [Example 96, ethyl 2-{5-[6-butyl-5-(2,6-dimethoxyphenyl)-2,4-dihydroxypyridin-3-yl]-1,3,4-oxadiazol-2-yl}acetate]",10 to 100
15,"CCCCc1nc(O)c(-c2nnc(CN3C(=O)CN(C)C3=O)o2)c(O)c1-c1c(OC)cccc1OC [Example 98, 3-({5-[6-butyl-5-(2,6-dimethoxyphenyl)-2,4-dihydroxypyridin-3-yl]-1,3,4-oxadiazol-2-yl}methyl)-1-methyl-imidazolidine-2,4-dione]",0.01 to 10
16,"CCCCc1nc(O)c(-c2nnc(Cc3cccc(F)c3)o2)c(O)c1-c1c(OC)cccc1OC [Example 99, 6-butyl-5-(2,6-dimethoxyphenyl)-3-{5-[(3-fluorophenyl)methyl]-1,3,4-oxadiazol-2-yl}pyridine-2,4-diol]",0.01 to 10

row,Structure (SMILES),EC50 [nM]
1,"CCCCc1nc(O)c(-c2nnc(CN3CCCCC3)o2)c(O)c1-c1c(OC)cccc1OC [Example 100, 6-butyl-5-(2,6-dimethoxyphenyl)-3-[5-(piperidin-1-ylmethyl)-1,3,4-oxadiazol-2-yl]pyridine-2,4-diol]",10 to 100
2,"CCCCc1nc(O)c(-c2nnc(Cc3nc(-c4cccnc4)no3)o2)c(O)c1-c1c(OC)cccc1OC [Example 101, 6-butyl-5-(2,6-dimethoxyphenyl)-3-(5-{[3-(pyridin-3-yl)-1,2,4-oxadiazol-5-yl]methyl}-1,3,4-oxadiazol-2-yl)pyridine-2,4-diol]",0.01 to 10
3,"CCCCc1nc(O)c(-c2nnc(Cc3cnn(C)c3)o2)c(O)c1-c1c(OC)cccc1OC [Example 102, 6-butyl-5-(2,6-dimethoxyphenyl)-3-{5-[(1-methyl-1H-pyrazol-4-yl)methyl]-1,3,4-oxadiazol-2-yl}pyridine-2,4-diol]",100 to 300
4,"CCCCc1nc(O)c(-c2nnc(Cc3ccc(Cl)cc3F)o2)c(O)c1-c1c(OC)cccc1OC [Example 103, 6-butyl-3-{5-[(4-chloro-2-fluorophenyl)methyl]-1,3,4-oxadiazol-2-yl}-5-(2,6-dimethoxyphenyl) pyridine-2,4-diol]",0.01 to 10
5,"CCCCc1nc(O)c(-c2nnc(Cc3nc(-c4ccncc4)no3)o2)c(O)c1-c1c(OC)cccc1OC [Example 104, 6-butyl-5-(2,6-dimethoxyphenyl)-3-(5-{[3-(pyridin-4-yl)-1,2,4-oxadiazol-5-yl]methyl}-1,3,4-oxadiazol-2-yl)pyridine-2,4-diol]",0.01 to 10
6,"CCCCc1nc(O)c(-c2nnc(CN3CCCC3=O)o2)c(O)c1-c1c(OC)cccc1OC [Example 105, 1-({5-[6-butyl-5-(2,6-dimethoxyphenyl)-2,4-dihydroxypyridin-3-yl]-1,3,4-oxadiazol-2-yl}methyl) pyrrolidin-2-one]",0.01 to 10
7,"CCOCc1nc(O)c(-c2nnc(Cc3csc(C)n3)o2)c(O)c1-c1c(OC)cccc1OC [Example 106, 5-(2,6-dimethoxyphenyl)-6-(ethoxymethyl)-3-{5-[(2-methyl-1,3-thiazol-4-yl)methyl]-1,3,4-oxadiazol-2-yl}pyridine-2,4-diol]",0.01 to 10
8,"CCOCc1nc(O)c(-c2nnc(Cc3noc(-c4ccccn4)n3)o2)c(O)c1-c1c(OC)cccc1OC [Example 107, 5-(2,6-dimethoxyphenyl)-6-(ethoxymethyl)-3-(5-{[5-(pyridin-2-yl)-1,2,4-oxadiazol-3-yl]methyl}-1,3,4-oxadiazol-2-yl)pyridine-2,4-diol]",0.01 to 10
9,"CCCCc1nc(O)c(-c2nnc(Cc3nc(Cc4ccccc4)no3)o2)c(O)c1-c1c(OC)cccc1OC [Example 108, 3-{5-[(3-benzyl-1,2,4-oxadiazol-5-yl)methyl]-1,3,4-oxadiazol-2-yl}-6-butyl-5-(2,6-dimethoxyphenyl) pyridine-2,4-diol]",0.01 to 10
10,"CCCCc1nc(O)c(-c2nnc(Cc3nc(C4CC4)no3)o2)c(O)c1-c1c(OC)cccc1OC [Example 109, 6-butyl-3-{5-[(3-cyclopropyl-1,2,4-oxadiazol-5-yl)methyl]-1,3,4-oxadiazol-2-yl}-5-(2,6-dimethoxyphenyl) pyridine-2,4-diol]",0.01 to 10
11,"CCOCc1[nH]c(=O)c(-c2nnc(Cc3ccc(Cl)nc3)o2)c(O)c1-c1c(OC)cccc1OC [Example 110, 3-{5-[(6-chloropyridin-3-yl)methyl]-1,3,4-oxadiazol-2-yl}-5-(2,6-dimethoxyphenyl)-6-(ethoxymethyl) pyridine-2,4-diol]",0.01 to 10
12,"CCCCc1nc(O)c(-c2nnc(Cc3nc(-c4ccccc4)no3)o2)c(O)c1-c1c(OC)cccc1OC [Example 111, 6-butyl-5-(2,6-dimethoxyphenyl)-3-{5-[(3-phenyl-1,2,4-oxadiazol-5-yl)methyl]-1,3,4-oxadiazol-2-yl}pyridine-2,4-diol]",0.01 to 10
13,"CCOCc1nc(O)c(-c2nnc(CN3CCCC3=O)o2)c(O)c1-c1c(OC)cccc1OC [Example 112, 1-({5-[5-(2,6-dimethoxyphenyl)-6-(ethoxymethyl)-2,4-dihydroxypyridin-3-yl]-1,3,4-oxadiazol-2-yl}methyl) pyrrolidin-2-one]",0.01 to 10
14,"CCCCc1nc(O)c(-c2nnc(CN3C(=O)CNC3=O)o2)c(O)c1-c1c(OC)cccc1OC [Example 113, 3-({5-[6-butyl-5-(2,6-dimethoxyphenyl)-2,4-dihydroxypyridin-3-yl]-1,3,4-oxadiazol-2-yl}methyl) imidazolidine-2,4-dione]",10 to 100
15,"CCCCc1nc(O)c(-c2nnc(Cn3ccccc3=O)o2)c(O)c1-c1c(OC)cccc1OC [Example 114, 1-({5-[6-butyl-5-(2,6-dimethoxyphenyl)-2,4-dihydroxypyridin-3-yl]-1,3,4-oxadiazol-2-yl}methyl)-1,2-dihydropyridin-2-one]",0.01 to 10
16,"CCCCc1nc(O)c(-c2nnc(Cn3ccnc3)o2)c(O)c1-c1c(OC)cccc1OC [Example 115, 6-butyl-5-(2,6-dimethoxyphenyl)-3-[5-(1H-imidazol-1-ylmethyl)-1,3,4-oxadiazol-2-yl]pyridine-2,4-diol]",10 to 100
